Experiments:
[1] = tested on: A. baumannii strain ATCC 19606; assay: Killing of A. baumannii ATCC 19606 by colistin with Apyrase Agent, CFU count; assay type: cell-based; conditions: about 10^6 CFU/ml inoculum; Apyrase Agent 1 and 2 U/ml with colistin, or colistin alone at the same concentrations (0.25-2 μg/ml)
Description: (§1) Approximately 10^6 CFU/ml of A. baumannii strain ATCC 19606 is grown on solid medium culture plates in the presence of combinations of 0, 1, and 2 U/ml of Apyrase Agent and 0, 0.25, 0.5, 1, and 2 μg/ml of colistin. After incubation, the numbers of viable cells are determined by counting the colony forming units (CFU) on the plate (data provided as CFU/ml).
(§2) In this Example (and in subsequent Examples), the colistin is colistin sulfate salt, catalog number C4461 from Sigma-Aldrich (St. Louis, Mo.) and the apyrase is catalog number M0393L from New England BioLabs Inc. (Ipswich, Mass.).

A. baumannii strain DMCI = assay: Killing of A. baumannii DMCI by colistin with Apyrase Agent, CFU count; assay type: cell-based; conditions: about 10^6 CFU/ml inoculum; Apyrase Agent 1 and 2 U/ml with colistin, or colistin alone at the same concentrations (4-32 μg/ml)
Description: as §2
as §1, with “baumannii strain DMCI is grown” for “baumannii strain ATCC 19606 is grown”, “and 0, 4, 8, 16, and 32” for “and 0, 0.25, 0.5, 1, and 2”, “16, and 32 μg/ml of” for “1, and 2 μg/ml of”

A. baumannii strain VBA9 = assay: Killing of colistin-resistant A. baumannii VBA9 by colistin with Apyrase Agent, CFU count; assay type: cell-based; conditions: colistin at less than 10-15 μg/ml, with Apyrase Agent 2 U/ml or alone
Description: as §2
Approximately 10^5 to 10^6 CFU/ml of the colistin-resistant A. baumannii strain VBA9 is grown in the presence of combinations of 0 and 2 U/ml of Apyrase Agent and approximately 0 to 32 μg/ml of colistin. After incubation, the numbers of viable cells are determined by counting the colony forming units (CFU) on the plate (data provided as CFU/ml). Apyrase Agent improves the efficiency of killing A. baumannii strain VBA9 by colistin. Apyrase Agent increases the effectiveness of colistin at less than 10-15 μg/ml such that less than 10 to 100 CFU/ml are detected relative to greater than 10^6 to 10^7 in the presence of colistin alone.

[2] = tested on: Burkholderia cepacia GIIIb AU0062; assay: Killing of Burkholderia cepacia GIIIb AU0062 by colistin with Apyrase Agent, CFU count; assay type: cell-based; conditions: colistin at less than 20 μg/ml, with Apyrase Agent 2 U/ml or alone
Description: as §2
(§3) Burkholderia cepacia GIIIb AU0062 is grown in the presence of combinations of 0 and 2 U/ml of Apyrase Agent and approximately 0 to 20 μg/ml of colistin. After incubation, the numbers of viable cells are determined by counting the colony forming units (CFU) on the plate (data provided as CFU/ml). Apyrase Agent improves the efficiency of killing Burkholderia cepacia GIIIb AU0062 by colistin. Apyrase Agent increases the effectiveness of colistin at less than 20 μg/ml such that less than 10 to 100 CFU/ml are detected relative to greater than 10^4 to 10^5 in the presence of colistin alone at the same concentrations.

[3] = tested on: Burkholderia ambifaria AU5203; assay: Killing of Burkholderia ambifaria AU5203 by colistin with Apyrase Agent, CFU count; assay type: cell-based; conditions: colistin at less than 20 μg/ml, with Apyrase Agent 2 U/ml or alone
Description: as §2
as §3, with “ambifaria AU5203” for “cepacia GIIIb AU0062”, “10^5” for “10^4”, “10^6” for “10^5”

[4] = tested on: Burkholderia cepacia GIIIb AU0055; assay: Killing of Burkholderia cepacia GIIIb AU0055 by colistin with Apyrase Agent, CFU count; assay type: cell-based; conditions: colistin at less than 10 μg/ml, with Apyrase Agent 2 U/ml or alone
Description: as §2
as §3, with “GIIIb AU0055” for “GIIIb AU0062”, “than 10” for “than 20”

[5] = tested on: Burkholderia multivorans AU0801; assay: Killing of Burkholderia multivorans AU0801 by colistin with Apyrase Agent, CFU count; assay type: cell-based; conditions: colistin at less than 10 μg/ml, with Apyrase Agent 2 U/ml or alone
Description: as §2
as §3, with “Burkholderia multivorans AU0801” for “Burkholderia cepacia GIIIb AU0062”, “than 10” for “than 20”, “than 10^5” for “than 10^4”, “to 10^6” for “to 10^5”

A. baumannii DMCI = assay: Mouse burn wound infection model, A. baumannii DMCI, six groups; assay type: in vivo; conditions: C57BL/6 mice, 24 hours after burn, colistin 4 μg/ml, treatment immediately after inoculation
Text: An established mouse wound model is used for these tests. Female pathogen-free C57BL/6 mice (Harlan, Indianapolis, Ind.), 12 weeks old, weighing ˜20-25 grams are used in all experiments. The skin over the lumbrosacral and back region is clipped using a 35-W model 5-55E electrical clipper (Oyster-Golden A-S, Head no. 80, blade size 40) by using the method described by Ipaktchi et al. with slight modification. Two hundred microliters of 0.9% saline suspension of A. baumannii DMCI (I×10^6 cells/ml), which is a highly colistin resistant clinical strain, is used for wound infection experiments. Viable bacterial numbers are determined 24 hours after burn. The Student t-test is used for statistical analysis.
Experiments are carried out in six groups (I) a control group, which contains neither apyrase nor colistin; (2) potato apyrase group, which contains potato apyrase (I U/ml); (3) colistin group, which contains colistin (4 μg/ml); (4) potato apyrase and colistin group, (5) Apyrase Agent group, (6) Apyrase Agent and colistin group.
The treatment is applied immediately after inoculation. After 24 hours, the mice are given lethal IP injections of pentobarbital (150 mg/kg) and skin samples are collected using a scalpel and scissors.

Substance: colistin sulfate salt
- viable cell count [1]: approximately 10^5 CFU/ml
- viable cell count (A. baumannii strain DMCI): approximately 10^7 CFU/ml
- numbers of viable cells (CFU) (A. baumannii strain VBA9): 10^6 to 10^7 CFU/ml
- numbers of viable cells (CFU) [2]: 10^4 to 10^5 CFU/ml
- numbers of viable cells (CFU) [3]: 10^5 to 10^6 CFU/ml
- numbers of viable cells (CFU) [4]: 10^4 to 10^5 CFU/ml
- numbers of viable cells (CFU) [5]: 10^5 to 10^6 CFU/ml
- viable bacteria number recovered from burn sites (A. baumannii DMCI): highest viable bacteria number
